Data taken from US5968581A, “Dipeptide derivatives and sweetening agents” (Ajinomoto Co., Inc., priority 1997, dated 1999).
Read-outs that look alike come from different tables or passages of the source. Residues, ends and D or L forms follow the SMILES beside them.

Key:
[1] = Sensory evaluation: degree of sweetness relative to sucrose; details: times that of 4% sucrose solution
[2] = Stability (half-life) in acidic aqueous solution, pH 3 phosphate buffer at 70° C.
[3] = pH 3

Stability (half-life, time corresponding to 50% degradation) [3]	SMILES	Degree of sweetness (relative to sugar) [1]	Degree of sweetness (relative to sugar) ([1]; listed as N-3,3-dimethylbutyl-α-L-aspartyl-α-methyl-L-tyrosine methyl ester)	Stability (half-life, time corresponding to 50% degradation) [2]	Stability (half-life, time corresponding to 50% degradation) ([2]; listed as N-3,3-dimethylbutyl-α-L-aspartyl-α-methyl-L-tyrosine methyl. ester)
	COC(=O)[C@](C)(Cc1ccc(O)cc1)NC(=O)[C@H](CC(=O)O)NCCC(C)(C)C [Example 2, N-3,3-dimethylbutyl-α-L-aspartyl-α-methyl-L-tyrosine methyl ester]	700 times	about 700 times	14.5 days	about 347 hours
about 24 hours	COC(=O)[C@H](Cc1ccccc1)NC(=O)[C@@H](N)CC(=O)O [aspartame] (H-Asp-Phe-OMe)				
